Test results reported in patent US6001331A, “Method of imaging amyloid deposits” (Warner-Lambert Company, priority 1998, dated 1999).
pIC50: −log10 of the molar value. Like-named read-outs stand apart in the source and are kept apart here.

Key:
[1] = target: Insulin amyloid aggregates; assay: Competition assay with Thioflavin T (ThT) for binding to insulin amyloid aggregates, fluorescence 96-well plate; conditions: 0.5 μM ThT, 2 μg per well fibrils, 25 mM sodium phosphate pH 6.0, room temperature
Method: Burke M. J. and Rougevie M. A., Cross-β Protein Structures. I. Insulin Fibrils. […] Briefly, lyophilized insulin protein powder dissolved at 10 mg/mL in 50 mM HCl was alternately heated to 95° C. and frozen in dry ice to form amyloid aggregates.
(§1) The ability of compounds of Formula I to compete with Thioflavin T (ThT) for binding to amyloid aggregates was measured using fluorescence in a 96-well fluorescence plate assay. As a compromise between sensitivity and signal and to facilitate comparisons between different amyloid fibrils, ThT is present at a concentration equal to the Kmapp of the particular amyloid fibril type and fibril concentrations yielding a similar fluorescence intensity are used. Insulin: 0.5 μM ThT, 2 μg per well. β(1-40): 20 μM ThT, 5 μg/well. All solutions are in 25 mM sodium phosphate buffer, pH 6.0, and the assay is performed at room temperature.
Using a multichannel pipettor, 100 μL of dilutions of the compound to be tested (0.001-30 μM final concentration in 3-fold steps) are placed in the bottom of Corning U-well polystyrene plates (Corning Company, Corning, N.Y.). 50 μL of ThT are then added to each well. The amyloid fibrils are then added to each well in a volume of 100 μL rapidly to mix the well contents. […] ThT dye blanks were used to correct for the minimal fluorescence background which are subtracted from all data.
(§2) Results are expressed as % maximal fluorescence (no competing compound). […]

[2] = target: T1, βA(1-40) amyloid aggregates (Homo sapiens, UniProt P05067); assay: Competition assay with Thioflavin T (ThT) for binding to β(1-40) amyloid aggregates, fluorescence 96-well plate
T1 construct: lyophilized β(1-40) protein powder (which may be purchased from BACHEM); purchased BACHEM
Source text: Amyloid aggregates containing β(1-40) protein can also be made by methods well known to those skilled in the art. See, for example, Burdick D., Soreghan B., Kwon M., Kosmoski J., Knauer M., Henschen A., Yates J., Cotman C., and Glabe C. Assembly and aggregation properties of synthetic Alzheimer's A4/β amyloid peptide analogs. J. Biol. Chem., 267:546-554 (1992), which is hereby incorporated by reference. Briefly, lyophilized β(1-40) protein powder (which may be purchased from BACHEM) was dissolved at 10 mg/mL in hexafluoro-2-propanol and subsequently diluted to 500 μg/mL in 25 mM sodium phosphate buffer, pH 6 to induce the α-helix to β-sheet transition resulting in aggregate formation.
as §1
Using a multichannel pipettor, 100 μL of dilutions of the compound to be tested (0.001-30 μM final concentration in 3-fold steps) are placed in the bottom of Corning U-well polystyrene plates (Corning Company, Corning, N.Y.). 50 μL of ThT are then added to each well. The amyloid fibrils are then added to each well in a volume of 100 μL rapidly to mix the well contents. The plates are read within 5 to 30 minutes in a Millipore Cytofluor 2350 96-well fluorescence plate reader using an excitation filter of 440 nm (20 nm bandpass) and an emission filter of 485 nm (20 nm bandpass). ThT dye blanks were used to correct for the minimal fluorescence background which are subtracted from all data.
as §2

[3] = 20 μM ThT, 5 μg/well fibrils, 25 mM sodium phosphate pH 6.0, room temperature, read-out: βA(1-40), IC50

T1 sequence (P05067 672-711 limits assumed): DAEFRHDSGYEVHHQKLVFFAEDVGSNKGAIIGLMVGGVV

Question: How did the pIC50 [1] turn out when `CN(C)c1ccc(/C=C/c2sc3ccccc3[n+]2C/C=C/c2ccccc2)cc1` [Example 32, (E,E)-2-[2-(4-Dimethylaminophenyl)vinyl]-3-(3-phenylallyl)benzothiazol-3-ium bromide] was run?
Answer: 7.10

Question: What does the source list for `CCCCCCC[n+]1c(/C=C/c2ccc(N3CCCC3)cc2)sc2ccccc21` [Example 46, (E)-3-Heptyl-2-[2-[(4-pyrrolidin-1-yl)phenyl]vinyl]benzothiazol-3-ium iodide]?
Answer: pIC50 [2, 3]: 6.80; pIC50 [1]: 7.38

Question: Which results are given for `COc1ccc2nc(/N=N/c3ccc(N(C)C)c4ccccc34)sc2c1` [Example 51, [4-(6-Methoxybenzothiazol-2-ylazo)naphthalen-1-yl]dimethylamine]?
Answer: pIC50 [2, 3]: 5.60; pIC50 [1]: 6.47

Question: With `C=CC[n+]1c(/C=C/c2ccc(N(C)C)cc2)sc2ccccc21` [Example 10, (E)-2-[2-(4-Dimethylaminophenyl)vinyl]-3-allylbenzothiazol-3-ium bromide] as the compound, how does the pIC50 [2] read?
Answer: 6.52

Question: What about the pIC50 [1] of the same compound?
Answer: 7.92

Question: With `CN(C)c1ccc(/C=C/c2sc3ccccc3[n+]2C)cc1` [Example 9, (E)-2-[2-(4-Dimethylaminophenyl)vinyl]-3-methylbenzothiazol-3-ium iodide] as the compound, how does the pIC50 [2, 3] read?
Answer: 6.00

Question: `CN(C)c1ccc(/C=C/c2sc3ccc(Cl)cc3[n+]2C)cc1` [Example 13, (E)-5-Chloro-2-[2-(4-dimethylaminophenyl)vinyl]-3-methylbenzothiazol-3-ium iodide] was tested. Which pIC50 [2, 3] did it give?
Answer: 6.37

Question: And the pIC50 [1]?
Answer: 8.28

Question: With `CCCCCCC[n+]1c(/C=C/c2ccc(N(C)C)c3ccccc23)sc2ccccc21` [Example 39, (E)-2-[2-(4-Dimethylaminonaphthalen-1-yl)vinyl]-3-heptylbenzothiazol-3-ium iodide] as the compound, how does the pIC50 [2, 3] read?
Answer: 6.80

Question: And the pIC50 [1]?
Answer: 7.40

Question: How did the pIC50 [2] turn out when `CN(C)c1ccc(/C=C/c2sc3ccccc3[n+]2Cc2cccc(Oc3ccccc3)c2)cc1` [Example 30, (E)-2-[2-(4-Dimethylaminophenyl)vinyl]-3-(3-phenoxybenzyl)benzothiazol-3-ium bromide] was run?
Answer: 6.92

Question: What about the pIC50 [1] of the same compound?
Answer: 6.74

Question: `CCCCCCC[n+]1c(/C=C/c2ccc(N(C)C)cc2)sc2ccccc21` [Example 12, (E)-2-[2-(4-Dimethylaminophenyl)vinyl]-3-heptylbenzothiazol-3-ium iodide] was tested. Which pIC50 [2, 3] did it give?
Answer: 7.03

Question: Which results are given for `CN(C)c1ccc(/C=C/c2sc3ccccc3[n+]2Cc2ccc(-c3ccccc3)cc2)cc1` [Example 26, (E)-3-Biphenyl-4-ylmethyl-2-[2-(4-dimethylaminophenyl)vinyl]benzothiazol-3-ium iodide]?
Answer: pIC50 [2, 3]: 6.62; pIC50 [1]: 7.47

Question: How did the pIC50 [2, 3] turn out when `CN(C)c1ccc(/C=C/c2sc3ccccc3[n+]2CCCC(c2ccccc2)c2ccccc2)cc1` [Example 33, (E)-2-[2-(4-Dimethylaminophenyl)vinyl]-3-(4,4-diphenylbutyl)benzothiazol-3-ium iodide] was run?
Answer: 6.34

Question: What about the pIC50 [1] of the same compound?
Answer: 6.68

Question: Which results are given for `CN(C)c1ccc(/C=C/c2sc3ccc(F)cc3[n+]2Cc2ccccc2)cc1` [Example 15, (E)-2-[2-(4-Dimethylaminophenyl)vinyl]-3-benzyl-5-fluorobenzothiazol-3-ium bromide]?
Answer: pIC50 [2]: 6.77; pIC50 [1]: 7.49

Question: `CCn1c(/C=C/c2ccc(N(C)C)cc2)[s+]c2ccc3ccccc3c21` [Example 22, (E)-2-[2-(4-Dimethylaminophenyl)vinyl]-1-ethylnaphtho[1,2-d]thiazol-3-ium toluene-4-sulfonate] was tested. Which pIC50 [2, 3] did it give?
Answer: 6.68

Question: And the pIC50 [1]?
Answer: 7.39

Question: What does the source list for `CN(C)c1ccc(/C=C/c2sc3ccccc3[n+]2Cc2ccccc2)cc1` [Example 6, (E)-3-Benzyl-2-[2-(4-dimethylaminophenyl)vinyl]benzothiazol-3-ium bromide]?
Answer: pIC50 [2]: 6.96; pIC50 [1]: 7.92

Question: What does the source list for `CN(C)c1ccc(/C=C/c2sc3ccccc3[n+]2CCCCCOc2ccccc2)cc1` [Example 37, (E)-2-[2-(4-Dimethylaminophenyl)vinyl]-3-(5-phenoxypentyl)benzothiazol-3-ium iodide]?
Answer: pIC50 [2, 3]: 6.77; pIC50 [1]: 7.10

Question: `CN(C)c1ccc(/C=C/c2nc3ccccc3s2)cc1` [Example 2, (E)-{4-[2-(Benzothiazol-2-yl)vinyl]phenyl}dimethylamine] was tested. Which pIC50 [2, 3] did it give?
Answer: < 4.00

Question: What does the source list for `CCCC[n+]1c(/C=C/c2ccc(N(C)C)cc2)sc2ccccc21` [Example 11, (E)-2-[2-(4-Dimethylaminophenyl)vinyl]-3-butylbenzothiazol-3-ium iodide]?
Answer: pIC50 [2, 3]: 6.80; pIC50 [1]: 7.57

Question: What does the source list for `CCCCCCC[n+]1c(/C=C/c2ccc(N(C)C)cc2)sc2cc(OC)ccc21` [Example 20, (E)-2-[2-(4-Dimethylaminophenyl)vinyl]-3-heptyl-6-methoxybenzothiazol-3-ium iodide]?
Answer: pIC50 [2, 3]: 6.85; pIC50 [1]: 7.40

Question: With `CN(C)c1ccc(/C=C/c2sc3ccccc3[n+]2CCCCCc2ccccc2)cc1` [Example 36, (E)-2-[2-(4-Dimethylaminophenyl)vinyl]-3-(5-phenylpentyl)benzothiazol-3-ium iodide] as the compound, how does the pIC50 [2, 3] read?
Answer: 6.77

Question: How did the pIC50 [2, 3] turn out when `CC[n+]1c(/C=C/c2ccc(N(C)C)cc2)sc2ccccc21` [Example 7, (E)-2-[2-(4-Dimethylaminophenyl)vinyl]-3-ethylbenzothiazol-3-ium iodide] was run?
Answer: 6.40

Question: And the pIC50 [1]?
Answer: 8.22

Question: Which results are given for `CN(C)c1ccc(/N=N/c2nc3ccc(Cl)cc3s2)cc1` [Example 50, 6-Chloro-2-[[4-(dimethylamino)phenyl]azo]benzothiazole]?
Answer: pIC50 [2, 3]: 5.89; pIC50 [1]: 5.89

Question: With `COc1ccc2c(c1)sc(/C=C/c1ccc(N(C)C)c3ccccc13)[n+]2C` [Example 41, (E)-2-[2-(4-Dimethylaminonaphthalen-1-yl)vinyl]-6-methoxy-3-methylbenzothiazol-3-ium iodide] as the compound, how does the pIC50 [2, 3] read?
Answer: 6.37

Question: What about the pIC50 [1] of the same compound?
Answer: 7.59

Question: `CN(C)c1ccc(/C=C/c2nc3ccc(N(C)C)cc3s2)cc1` [Example 5, (E)-{2-[2-(4-Dimethylaminophenyl)vinyl]benzothiazol-6-yl}dimethylamine] was tested. Which pIC50 [2, 3] did it give?
Answer: < 4.00

Question: How did the pIC50 [1] turn out when `CN(C)c1ccc(/C=C/c2sc3ccccc3[n+]2Cc2ccccc2-c2ccccc2)cc1` [Example 28, (E)-3-Biphenyl-2-ylmethyl-2-[2-(4-dimethylaminophenyl)vinyl]benzothiazol-3-ium bromide] was run?
Answer: 7.10

Question: How did the pIC50 [2, 3] turn out when `CN(C)c1ccc(/C=C/c2sc3ccc(F)cc3[n+]2C)cc1` [Example 14, (E)-2-[2-(4-Dimethylaminophenyl)vinyl]-5-fluoro-3-methylbenzothiazol-3-ium iodide] was run?
Answer: 6.00

Question: How did the pIC50 [2, 3] turn out when `COc1ccc2c(c1)sc(/C=C/c1ccc(N(C)C)cc1)[n+]2C` [Example 19, (E)-2-[2-(4-Dimethylaminophenyl)vinyl]-6-methoxy-3-methylbenzothiazol-3-ium iodide] was run?
Answer: 6.52

Question: What does the source list for `CN(C)c1ccc(/C=C/c2sc3c4ccccc4ccc3[n+]2C)cc1` [Example 24, (E)-2-[2-(4-Dimethylaminophenyl)vinyl]-3-methylnaphtho[2,1-d]thiazol-3-ium iodide]?
Answer: pIC50 [2, 3]: 6.68; pIC50 [1]: 7.39

Question: With `CN(C)c1ccc(/C=C/c2sc3cc([N+](=O)[O-])ccc3[n+]2C)cc1` [Example 21, (E)-2-[2-(4-Dimethylaminophenyl)vinyl]-3-methyl-6-nitrobenzothiazol-3-ium toluene-4-sulfonate] as the compound, how does the pIC50 [2, 3] read?
Answer: 6.00

Question: And the pIC50 [1]?
Answer: 7.92

Question: How did the pIC50 [1] turn out when `Cc1ccc2nc(/C=C/c3ccc(N(C)C)cc3)sc2c1` [Example 4, (E)-Dimethyl-{4-[2-(6-methylbenzothiazol-2-yl)vinyl]phenyl}amine] was run?
Answer: 5.82

Question: `CN(C)c1ccc(/N=N/c2nc3c(ccc4ccccc43)s2)c2ccccc12` [Example 52, Dimethyl[4-(naphtho[1,2-d]thiazol-2-ylazo)naphthalen-1-yl]amine] was tested. Which pIC50 [1] did it give?
Answer: 4.80

Question: With `CN(C)c1ccc(/C=C/c2sc3ccccc3[n+]2CCCCOc2ccccc2)cc1` [Example 35, (E)-2-[2-(4-Dimethylaminophenyl)vinyl]-3-(4-phenoxybutyl)benzothiazol-3-ium iodide] as the compound, how does the pIC50 [2, 3] read?
Answer: 6.77

Question: `Cc1ccc2sc(/C=C/c3ccc(N(C)C)cc3)nc2c1` [Example 3, (E)-Dimethyl-{4-[2-(5-methylbenzothiazol-2-yl)vinyl]phenyl}amine] was tested. Which pIC50 [1] did it give?
Answer: 6.05

Question: `CN(C)c1ccc(/N=N/c2nc3ccccc3s2)cc1` [Example 47, [4-(Dimethylamino)phenylazo]benzothiazole] was tested. Which pIC50 [2, 3] did it give?
Answer: 4.66
